Laboratory results: ChEMBL document CHEMBL5724796, “Tm Shift (DSF) assay results for EUbOPEN Chemogenomics Library” (2024)
Residues, ends and D or L forms follow the SMILES beside them.

Legend:
Peregrin (Homo sapiens) = target: T1, Peregrin (Homo sapiens) (UniProt P55201); conditions: Compound concentration 20.0 uM
T1 sequence (whole entry): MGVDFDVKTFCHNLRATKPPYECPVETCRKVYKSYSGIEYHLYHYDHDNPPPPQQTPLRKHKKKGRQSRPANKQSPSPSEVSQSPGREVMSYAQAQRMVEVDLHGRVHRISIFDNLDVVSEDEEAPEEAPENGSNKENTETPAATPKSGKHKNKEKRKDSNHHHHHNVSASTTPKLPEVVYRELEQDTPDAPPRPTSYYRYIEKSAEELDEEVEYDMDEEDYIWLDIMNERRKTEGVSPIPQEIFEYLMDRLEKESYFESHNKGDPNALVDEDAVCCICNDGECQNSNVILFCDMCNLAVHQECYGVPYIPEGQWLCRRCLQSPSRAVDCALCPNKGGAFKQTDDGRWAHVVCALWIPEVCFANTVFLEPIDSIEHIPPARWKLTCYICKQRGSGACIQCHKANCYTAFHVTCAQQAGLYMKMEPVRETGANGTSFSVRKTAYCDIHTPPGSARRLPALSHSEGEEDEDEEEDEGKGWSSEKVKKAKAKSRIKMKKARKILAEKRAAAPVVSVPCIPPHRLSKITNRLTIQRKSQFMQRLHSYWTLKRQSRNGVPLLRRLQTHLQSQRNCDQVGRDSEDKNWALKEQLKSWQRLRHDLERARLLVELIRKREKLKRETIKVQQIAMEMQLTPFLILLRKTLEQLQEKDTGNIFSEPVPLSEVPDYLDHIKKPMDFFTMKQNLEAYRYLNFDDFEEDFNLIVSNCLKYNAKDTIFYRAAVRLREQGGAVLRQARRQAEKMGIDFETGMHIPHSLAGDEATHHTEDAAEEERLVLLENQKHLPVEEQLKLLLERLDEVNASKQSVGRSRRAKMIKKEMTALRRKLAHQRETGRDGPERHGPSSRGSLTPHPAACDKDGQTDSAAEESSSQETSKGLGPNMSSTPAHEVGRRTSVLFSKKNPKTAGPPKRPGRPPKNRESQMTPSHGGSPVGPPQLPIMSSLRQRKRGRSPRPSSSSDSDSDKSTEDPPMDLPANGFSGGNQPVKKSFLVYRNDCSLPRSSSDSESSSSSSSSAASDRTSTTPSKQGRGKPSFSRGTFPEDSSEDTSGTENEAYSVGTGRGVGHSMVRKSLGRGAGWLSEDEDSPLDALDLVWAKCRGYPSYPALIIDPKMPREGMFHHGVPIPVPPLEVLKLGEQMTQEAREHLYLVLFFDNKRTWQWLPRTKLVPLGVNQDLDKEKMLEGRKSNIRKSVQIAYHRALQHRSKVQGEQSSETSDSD

[1] = target: Fibroblast growth factor receptor 2 (Homo sapiens) (UniProt P21802); conditions: Compound concentration 20.0 uM
Sequence of Fibroblast growth factor receptor 2 (Homo sapiens) (P21802 22-821 limits assumed): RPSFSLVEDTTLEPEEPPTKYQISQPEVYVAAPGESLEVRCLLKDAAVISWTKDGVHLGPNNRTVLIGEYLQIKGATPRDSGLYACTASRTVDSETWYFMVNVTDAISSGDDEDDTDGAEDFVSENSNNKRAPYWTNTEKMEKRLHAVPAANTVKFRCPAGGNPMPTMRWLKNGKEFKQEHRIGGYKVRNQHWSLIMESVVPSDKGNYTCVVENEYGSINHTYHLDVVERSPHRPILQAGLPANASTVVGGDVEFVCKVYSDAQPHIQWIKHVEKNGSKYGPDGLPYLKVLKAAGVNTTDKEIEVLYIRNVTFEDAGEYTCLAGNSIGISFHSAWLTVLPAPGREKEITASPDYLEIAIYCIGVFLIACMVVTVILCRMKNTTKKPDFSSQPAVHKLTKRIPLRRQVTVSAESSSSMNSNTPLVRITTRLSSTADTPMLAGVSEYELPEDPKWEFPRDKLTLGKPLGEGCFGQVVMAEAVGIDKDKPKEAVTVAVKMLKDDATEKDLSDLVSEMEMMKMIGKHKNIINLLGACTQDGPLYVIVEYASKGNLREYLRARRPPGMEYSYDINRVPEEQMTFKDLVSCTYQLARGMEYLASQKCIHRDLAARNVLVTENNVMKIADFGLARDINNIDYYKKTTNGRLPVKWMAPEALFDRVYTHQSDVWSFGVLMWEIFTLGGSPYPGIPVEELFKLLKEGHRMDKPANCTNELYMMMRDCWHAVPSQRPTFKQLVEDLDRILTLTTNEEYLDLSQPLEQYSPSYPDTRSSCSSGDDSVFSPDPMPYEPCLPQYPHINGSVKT
Description: Thermal Shift Assay. Domain: start/stop: T457-E768

SMILES	ΔTm (Peregrin (Homo sapiens))	ΔTm [1]
CN(C(=O)CCCOc1ccc2[nH]c(=O)ccc2c1)C1CCCCC1	1.74 °C	-0.58 °C
O=C(CCCCCCNC(=O)c1cnc(N(c2ccccc2)c2ccccc2)nc1)NO	-1.39 °C	-0.22 °C
Cc1cc(/N=N/c2ccc(S(=O)(=O)Nc3ccccn3)cc2)c(N)cc1O	5.09 °C	0.17 °C
O=C(O)Cc1ccc(Cc2cc(-c3cccc(Cl)c3)nc(C(F)(F)F)c2)cc1	-0.4 °C	-0.76 °C
O=C1CCc2cc(OCCCCc3nnnn3C3CCCCC3)ccc2N1	-1.16 °C	-0.38 °C
NC(=S)c1cccc(-c2cn(C3CCN(S(=O)(=O)C(F)(F)F)CC3)c3cc(CNC(=O)C4CNC4)ccc23)c1	5.2 °C	0.25 °C
CCCC1O[C@@H]2C[C@H]3[C@@H]4CCC5=CC(=O)C=C[C@]5(C)[C@H]4[C@@H](O)C[C@]3(C)[C@]2(C(=O)CO)O1 (stereo partly specified)	-1.04 °C	-0.77 °C
Cc1cc(C)nc(SCC(=O)Nc2ncc(Cc3cccc(OCc4cn(Cc5ccccc5)nn4)c3)s2)n1	-1.46 °C	-10.7 °C
COc1ccc(C(=O)C2CCN(CC(=O)N(Cc3nc4c(c(=O)[nH]3)COCC4)CC3CC3)CC2)cc1	2.73 °C	-0.62 °C
COc1cc2c(cc1OC)[C@H]1C[C@@H](O)[C@H](CC(C)C)CN1CC2	0.34 °C	0.33 °C
O=C(NO)C(c1ccc(-c2ncc(C(F)(F)F)cn2)cc1)c1ccccc1F (stereo unspecified)	-0.82 °C	-0.81 °C
COc1ccc(Cc2nc(O)c3c(C)nc([C@@H](CCCc4ccccc4)[C@@H](C)O)n3n2)cc1OC	0.21 °C	0.51 °C
Cc1cc(OCCCNCCC(N)=O)ccc1Cc1c(O[C@@H]2O[C@H](CO)[C@@H](O)[C@H](O)[C@H]2O)n[nH]c1C(C)C	1.37 °C	0.45 °C
Cc1c(CN2CCC(Nc3ncnc4sc(CC(F)(F)F)cc34)CC2)ccc2[nH]c(C#N)cc12	-2.53 °C	0.11 °C
CSCC[C@H](NC(=O)[C@H](CC(=O)O)NC(C)=O)C(=O)N[C@@H](CCC(N)=O)C(=O)N[C@H](C=O)CC(=O)O (Ac-DMQD-aldehyde)	-1.78 °C	0.77 °C
O=C(NO)c1cccc(C(=O)NCCc2ccccc2)c1	-0.84 °C	0.41 °C
O=C(O)Cn1nnc(-c2ccc(CN(CCCCOc3ccc(CN4CCCC4)cc3)CCc3ccccc3)cc2)n1	-2.23 °C	-2.96 °C
Cc1[nH]c2c(N3CCCCC3)c(-c3ccccc3)nn2c(=O)c1-c1ccc(O)cc1	-0.91 °C	0.5 °C
COc1ccc(OC)c(-c2nnc3n2N=C(c2ccc(OC)c(OC)c2)CS3)c1	0.8 °C	0.4 °C
Cc1ccc(F)c2cc(C(=O)N[C@@H]3CCC[C@H](N4CC[C@H](N(C)S(C)(=O)=O)C4)C3)[nH]c12	-0.28 °C	-0.4 °C
O=C(Nc1cc(C(F)F)ns1)Nc1cc(F)ncc1CO	3.9 °C	-0.3 °C
Cc1ncsc1-c1ccc([C@H](C)NC(=O)[C@@H]2C[C@@H](O)CN2C(=O)[C@@H](NC(=O)COCCCOCCNC(=O)C[C@@H]2N=C(c3ccc(Cl)cc3)c3c(sc(C)c3C)-n3c(C)nnc32)C(C)(C)C)cc1	-1.73 °C	-0.49 °C
CN(C)Cc1ccc(S(=O)(=O)n2ccc(/C=C/C(=O)NO)c2)cc1	-0.83 °C	0.36 °C
Cc1c(Nc2ccc(S(=O)(=O)N3CCN(C)CC3)cc2F)nc2ccc(-c3cnn(C4CC4)c3)cn2c1=O	0.83 °C	-0.17 °C
CC(C)[C@@H]1C(=O)N(S(C)(=O)=O)[C@@H]2CCN(C(=O)/C=C/CN3CCCCC3)[C@H]21	-1.67 °C	0.49 °C
CN(CCC(Oc1ccc(-c2ccccc2)cc1)c1ccc(F)cc1)CC(=O)O (stereo unspecified)	1.93 °C	0.44 °C
COc1ccc(/C=C/C(=O)NO)c(-c2ccc(-c3ccccc3)cc2)c1	-5.43 °C	-5.03 °C
CC(C)N(C[C@H]1O[C@@H](n2cnc3c(N)ncnc32)[C@H](O)[C@@H]1O)[C@H]1C[C@@H](CCc2nc3cc(C(C)(C)C)ccc3[nH]2)C1	-1.35 °C	0.82 °C
